Data reported in patent publication US9387206B2, “Therapeutic approaches for treating Alzheimer's disease” (PHARNEXT, priority 2009, dated 2016).

Columns and labels:
[1] = system: rat primary cortical neurons; assay: Neurite outgrowth in beta-amyloid (Aβ25-35) intoxicated rat primary cortical neuron culture; type: cell-based; conditions: Aβ25-35 20 μM, 2 days; drug added 1 hour before
[2] = system: rat primary cortical neurons; assay: LDH release, human Aβ1-42 toxicity on rat primary cortical cells; type: cell-based
Description: Primary rat cortical neurons are cultured as described previously.
Briefly, Aβ1-42 peptide was reconstituted in defined culture medium at 40 μM (mother solution) and was slowly shacked at +37° C. for 3 days in the dark for aggregation. The control medium was prepared in the same conditions.
After 10 days of neuron culture, the drug was solved in culture medium (+0.1% DMSO) and then pre-incubated with neurons for 1 hour before the Aβ1-42 application (in a final volume per culture well of 100 μl). […] Cortical neurons were intoxicated for 24 hours. Three separate cultures were performed per condition, 6 wells per condition.
Estradiol-β at 100 and 150 nM were used as a reference test compound and BDNF at 50 ng/ml was used as a positive control. Three separate cultures were performed per condition, […].
Estradiol-β and BDNF were solved in culture medium and pre-incubated for 1 h before the aggregated amyloid-β1-42 application.
Lactate Dehydrogenase (LDH) Activity Assay
This colorimetric assay for the quantification of cell toxicity is based on the measurement of lactate dehydrogenase (LDH) activity released from the cytosol of dying cells into the supernatant.
All values are expressed as mean±s.e.mean of the 3 cultures (n=6 per condition). Statistical analyses were done on the different conditions (ANOVA followed by the Dunnett's test when it was allowed, Statview software version 5.0).

[3] = system: rat endothelial cerebral cells; assay: LDH release from rat endothelial cerebral cells, beta-amyloid (Aβ25-35) toxicity; type: cell-based; conditions: for Prevention of Aβ25-35 intoxication, LDH release: Aβ25-35 30 μM, 3 days, drug added 1 hour before
Description: Primo culture of rat endothelial cerebral cells (Vect-Horus SAS, Marseille) is cultivated on passage 0. At confluence, endothelial cells are dissociated with trypsin EDTA (Pan Biotech Ref: P10-023100). Cells are seeded at a density of 25,000 cells/well in 96-well plates (wells are coated with 30 μl of type I rat collagen at 1.5 mg/ml, Vect-Horus SAS, Marseille) and are cultured in MCBD 131 medium (M-131-500, Invitrogen) supplemented with 1% of microvascular growth supplement (MVGS, S-005-25, Invitrogen). Cells are cultured at 37° C. in a humidified air (95%)/CO2(5%) atmosphere. Half of the medium is changed every other day with fresh medium.
After 4 days, drugs are added to the cell culture medium, at different concentrations, solved in DMSO 0.1% or water.
Cells are then intoxicated with 30 μM of β-amyloid (25-35; Sigma) together with drugs in the same culture medium. Cells are then intoxicated for 3 days.
For each culture, after 3 days of intoxication, the supernatant is collected and analyzed with the Cytotoxicity Detection Kit (LDH, Roche Applied Sciences). This colorimetric assay for the quantification of cell death is based on the measurement of lactate dehydrogenase (LDH) activity released from the cytosol of damaged cells into the supernatant. The optic density (DO) is assessed by spectrophotometer at 492 nm wavelength by a multiscan apparatus (Thermo, Ref Ascent).
Results presented in FIG. 3 are extracted from two independent cultures, 6 wells per condition. All values are expressed as mean±s.e.m. A bilateral Student's t test analysis is performed on raw data. Results are expressed in percentage of cell viability, compared to the control (vehicle).
Drugs are incubated with rat primary cerebral endothelial cells for one hour before Aβ25-35 30 μM intoxication that lasts 3 days.
Three days after this incubation, LDH release in the culture medium is quantified, reflecting the level of cell death.

[4] = system: rat primary cortical neurons; assay: LDH release in Aβ25-35 intoxicated rat primary cortical neuron culture; type: cell-based; conditions: Aβ25-35 20 μM, 2 days; drug added 1 hour before
Description: Primary rat cortical neurons are cultured as described by Singer et al., 1999. Briefly pregnant female rats of 15 days gestation are killed by cervical dislocation (Rats Wistar; Janvier) and the foetuses removed from the uterus. The cortexes are removed and placed in ice-cold medium of Leibovitz (L15; Invitrogen) containing 1% of Penicillin-Streptomycin (PS; Invitrogen) and 1% of bovine serum albumin (BSA; Sigma). Cortexes are dissociated by trypsinisation for 20 min at 37° C. (Trypsin EDTA 1×; Invitrogen) diluted in PBS without calcium and magnesium. The reaction is stopped by the addition of Dulbecco's modified Eagle's medium (DMEM; Invitrogen) containing DNAase I grade II (0.1 mg/ml; Roche Diagnostics) and 10% of foetal calf serum (FCS; Invitrogen). Cells are then mechanically dissociated by 3 passages through a 10 ml pipette. Cells are then centrifuged at 180×g for 10 min at 10° C. […] Viable cells are counted in a Neubauer cytometer using the trypan blue exclusion test. Cells are seeded at a density of 30,00-cells/well in 96-well plates (wells are pre-coated with poly-L-lysine (10 μg/ml; […] After 6 days of culture, cells are incubated with drugs (5 concentrations). After 1 hour, cells are intoxicated by 20 μM of β-amyloid (25-35; Sigma) in defined medium without BDNF but together with drugs. Cortical neurons are intoxicated for 2 days. After 2 days of culture, the supernatant is collected and analyzed with the Cytotoxicity Detection Kit (LDH, Roche Applied Sciences). This colorimetric assay for the quantification of cell death is based on the measurement of lactate dehydrogenase (LDH) activity released from the cytosol of damaged cells into the supernatant. The optic density (DO) is assessed by spectrophotometer at 492 nm wavelength by a multiscan apparatus (Thermo, Ref Ascent). […] Two days after this incubation, LDH release in the culture medium is quantified, reflecting the level of cell death.

[5] = system: NGF-differentiated PC12 cells; assay: MTT viability of NGF-differentiated PC12 after Aβ25-35 intoxication; type: cell-based, rat; conditions: Aβ25-35 10 μM, 24 hours, drug added 1 hour before
Description: PC12 (Pheochromocytoma Rat, ATCC ref: CRL-1721) cells from [NT] CRL-1721) were rapidly thawed in 37° C. water. The supernatant was immediately put in 9 ml of a PC12 proliferation medium containing Dulbecco's modified Eagle's medium DMEM-F12 (Pan Biotech ref: P04-41450) with 15% heat-inactivated horse serum (Invitrogen ref: 16050-130), 2.5% of fetal bovine serum (FBS; Invitrogen ref: 16000-036), 1% of Penicillin 10,000 U/ml and Streptomycin 10 mg/ml (PS; Pan Biotech ref: P06-07100) and 1% of L-glutamine 200 mM (Pan Biotech ref: P04-80100). Cells were centrifuged (800 rounds/min, 4° C. for 5 min) and added in 5 ml PC12 proliferation medium, viable cells were counted with a Malassez cell using the […] exclusion test (Sigma). Then the cells were seeded at 3.10^4 cells per cm^2 in PC12 proliferation medium in 75 cm^2 plastic flasks (Greiner Ref: 658175) precoated with poly-L-lysine (10 μg/ml, Sigma Ref: P2636). Medium was changed every other day. After 3 days of culture, when cells reached 80% of confluence, they were washed in HBSS without calcium and magnesium (Pan Biotech Ref: […] P10-023100). The enzymatic reaction was stopped with PC12 proliferation medium added by 0.5 mg/ml of DNAse 1 grade 2 (Pan Biotech Ref: 760-37780100). […]

[6] = system: human brain microvascular endothelial cells (HBMEC); assay: Total length of capillary network in human Aβ1-42 intoxicated HBMEC cultures; type: cell-based; conditions: Aβ1-42 2.5 μM
Description: Human brain microvascular endothelial cell cultures were used to study the protection afforded by candidate compounds on Aβ1-42 toxicity.
Human brain microvascular endothelial cerebral cells (HBMEC, ScienCell Ref: 1000, frozen at passage 10) were rapidly thawed in a water bath at +37° C. […] On matrigel support, endothelial cerebral cells spontaneously started the process of capillary network morphogenesis (47).
Three separate cultures were performed per condition, 6 wells per condition.
The control medium was prepared in the same conditions.
The Aβ1-42 peptide was added 2 hours after HBMEC seeding on matrigel for 18 hours incubation.
Capillary Network Quantification
Per well, 2 pictures with 4× lens were taken using InCell Analyzer™ 1000 (GE Healthcare) in light transmission. All images were taken in the same conditions. Analysis of the angiogenesis networks was done using Developer software (GE Healthcare). The total length of capillary network was assessed.
All values are expressed as mean±s.e.mean of the 3 cultures (n=6 per condition). Statistical analyses were done on the different conditions performing an ANOVA followed by the Dunnett's test when it was allowed (Statview software version 5.0). The values (as %) inserted on the graphs show the amyloid toxicity evolution. Indeed, the amyloid toxicity was taken as the 100% and the test compound effect was calculated as a % of this amyloid toxicity.

CC(=O)NCCCS(=O)(=O)O [Acamprosate]
Prevention of Aβ25-35 intoxication, neurite outgrowth (neurite length) [1]: significantly prevented
Effect on Aβ1-42 intoxication, LDH release, drug alone ([2]; 0.32 nM alone, Aβ1-42 2.5 μM): no significant effect

Cc1oncc1C(=O)Nc1ccc(C(F)(F)F)cc1 [Leflunomide]
Prevention of Aβ25-35 intoxication, LDH release [3]: significantly prevented
Spontaneous cell death in the culture medium ([3]; LDH release, rat endothelial cerebral cells): decrease spontaneous cell death
Prevention of Aβ25-35 intoxication, LDH release [4]: significantly prevented

CCCNC(C)C(=O)Nc1ccccc1C (stereo not drawn) [Prilocain, Prilocaine]
Prevention of Aβ25-35 intoxication, cell viability (MTT) [5]: significantly prevented
Prevention of Aβ25-35 intoxication, cell viability (MTT) ([5]; listed as prilocaine): strong neuroprotective effect

Cc1noc(NS(=O)(=O)c2ccc(N)cc2)c1C [Sulfisoxazole]
Prevention of Aβ25-35 intoxication, LDH release [3]: significantly prevented
Prevention of Aβ25-35 intoxication, LDH release [4]: significantly prevented
Effect on Aβ1-42 intoxication, total length of capillary network, drug alone ([6]; 1.36 nM alone): no significant effect
Effect on Aβ1-42 intoxication, total length of capillary network, drug alone ([6]; alone at the concentrations used in the combination (FIGS. 8-13)): no significant effect
Prevention of Aβ1-42 intoxication, capillary network, drug alone ([6]; dose-response experiments, 18 h): significantly prevented
LDH release, prevention of Aβ1-42 intoxication ([2]; drug pretreatment, concentration not given): −42%

NS(=O)(=O)Cc1noc2ccccc12 [Zonisamide]
Prevention of Aβ25-35 intoxication, neurite outgrowth (neurite length) [1]: significantly prevented
Prevention of Aβ25-35 intoxication, LDH release [4]: significantly prevented
